Patent publication US20260132152A1, “SOLID FORMS OF AN ORALLY-DELIVERED BETA-LACTAMASE INHIBITOR AND USES THEREOF” (Venatorx Pharmaceuticals, Inc., priority 2019, published 2026)
≈ marks a conversion by molar mass, not a printed value. Read-outs that look alike come from different tables or passages of the source.

Legend:
Type in all cases: physicochemical
[1] = Dynamic vapor sorption (DVS) analysis, 5% RH to 95% RH and back to 5% RH at 10% RH increments
Protocol: Moisture sorption/desorption data were collected on a VTI SGA-100 Vapor Sorption Analyzer. NaCl and PVP were used as calibration standards. Samples were not dried prior to analysis. Sorption and desorption data were collected over a range from 5% to 95% RH at 10% RH increments under a nitrogen purge (RH=relative humidity). The equilibrium criterion used for analysis was less than 0.0100% weight change in 5 minutes with a maximum equilibration time of 3 hours. Data were not corrected for the initial moisture content of the samples.
DVS analysis of Compound 1-ethanolate Form A was conducted from 5% relative humidity (RH) to 95% RH and back to 5% RH at 10% RH increments (FIG. 7). […] A loss of 1.8 wt % was observed between 55% RH and 65% RH possibly due to water displacing ethanol. After 65% RH, the sample gained 3.8 wt % between 65% RH and 95% RH. […] Weight loss (˜7.6 wt %) was observed between 95% RH and 5% RH (i.e., desorption). After DVS analysis, it was noted that the sample had deliquesced.
DVS analysis of Compound 1-ethanolate Form B (with minor Form A) was conducted from 5% RH to 95% RH and back to 5% RH at 10% RH increments (FIG. 12). The DVS isotherm of Form B is qualitatively similar to that of Form A. Form B lost 0.2 wt % upon equilibration at ˜5% RH. […] A weight loss of 1.1% was observed between 45% RH and 55% RH, possibly due to the displacement of the ethanol with water. After 55% RH, the sample gained 3.3 wt % between 55% RH and 95% RH. […] Weight loss (˜5.8 w1%) was observed during desorption from 95% RH to 5% RH.

[2] = Exposure to elevated RH (75%, 85%, 97%) at room temperature
Protocol: Samples of Compound 1-ethanolate Form A were exposed to elevated RH (75%, 85% and 97%) at room temperature for approximately 3 hours and 24 hours (Table 8).

[3] = Visual solubility estimates by aliquot addition at ambient temperature
Protocol: Visual solubility estimates for Compound 1-ethanolate Form A were determined in a variety of solvents and solvent mixtures using an aliquot addition method to aid in experimental design.

[4] = Solvent-mediated interconversion slurries with seeds of Form A and Form B; conditions: slurries in 3% DCM in heptane and 5% EtOH in heptane, room temperature, ~2 weeks, XRPD
Protocol: Saturated solutions of Compound 1-ethanolate were prepared in 3% DCM in heptane and 5% EtOH in heptane.
Approximately equal amounts of Form A, and Form B (containing a minor amount of Form A) were added to the filtered saturated solutions, and the suspensions were slurried at room temperature for ˜2 weeks, and the isolated solids were observed by polarized light microscopy (PLM) and analyzed by XRPD.

[5] = Separate DVS analysis with stepped increase in relative humidity, 0% RH to 60% RH, 4 h per step, then XRPD
Protocol: A second set of DVS experiments were conducted using a stepped method from 0% RH to 60% RH with steps of 10% RH and four hours of equilibration at each humidity value. […] The samples were placed on an aluminum holder and allowed to equilibrate at 0% RH before starting the following predefined humidity program; hold for 4 h at 0% RH, increase humidity by a step of 10% RH, hold for 4 h. repeat the above two steps five times until a value of 60% RH has been reached. The samples were then analyzed for crystallinity using the second set of XRPD conditions.

Compound: CCOB1Oc2c(cccc2C(=O)OCOC(=O)C(CC)CC)C[C@@H]1NC(=O)CC [Compound 1-ethanolate Form A, ((2-ethylbutanoyl)oxy)methyl (R)-2-ethoxy-3-propionamido-3,4-dihydro-2H-benzo[e][1,2]oxaborinine-8-carboxylate]
- State of sample after DVS analysis ([1]; after 5-95-5% RH cycle): deliquesced
- Weight loss in DVS (desorption) ([1]; between 95% RH and 5% RH): ~7.6 wt %
- Weight % chg ([1]; desorption, elapsed 731.2 min, sample RH 85.19%, 25.19 °C): 0.633%
- Weight % chg ([1]; desorption, elapsed 918.9 min, sample RH 74.98%, 25.19 °C): −0.694%
- Weight % chg ([1]; desorption, elapsed 1106.5 min, sample RH 65.14%, 25.19 °C): −1.716%
- Weight % chg ([1]; desorption, elapsed 1296.4 min, sample RH 54.99%, 25.19 °C): −2.592%
- Weight % chg ([1]; desorption, elapsed 1483.9 min, sample RH 45.11%, 25.19 °C): −3.308%
- Weight % chg ([1]; desorption, elapsed 1671.4 min, sample RH 35.03%, 25.19 °C): −3.916%
- Weight % chg ([1]; desorption, elapsed 1859.0 min, sample RH 25.06%, 25.19 °C): −4.432%
- Weight % chg ([1]; desorption, elapsed 2044.7 min, sample RH 14.87%, 25.19 °C): −4.883%
- Weight % chg ([1]; desorption, elapsed 2228.6 min, sample RH 5.67%, 25.19 °C): −5.275%
- Hygroscopicity ([1]; from 5-55% RH): non-hygroscopic
- Weight gain in DVS ([1]; sorption, between 5% RH and 55% RH): ~0.3 wt %
- Weight loss in DVS ([1]; sorption, between 55% RH and 65% RH, possibly water displacing ethanol): 1.8 wt %
- Weight gain in DVS ([1]; sorption, between 65% RH and 95% RH): 3.8 wt %
- Weight % chg ([1]; sorption, elapsed 21.1 min, sample RH 5.15%, 25.19 °C): −0.043%
- Weight % chg ([1]; sorption, elapsed 39.7 min, sample RH 14.86%, 25.19 °C): −0.003%
- Weight % chg ([1]; sorption, elapsed 51.8 min, sample RH 24.90%, 25.20 °C): 0.051%
- Weight % chg ([1]; sorption, elapsed 64.8 min, sample RH 34.83%, 25.19 °C): 0.120%
- Weight % chg ([1]; sorption, elapsed 78.3 min, sample RH 44.87%, 25.19 °C): 0.214%
- Weight % chg ([1]; sorption, elapsed 91.2 min, sample RH 54.86%, 25.18 °C): 0.316%
- Weight % chg ([1]; sorption, elapsed 281.1 min, sample RH 65.03%, 25.18 °C): −1.494%
- Weight % chg ([1]; sorption, elapsed 294.7 min, sample RH 74.65%, 25.20 °C): −1.170%
- Weight % chg ([1]; sorption, elapsed 356.0 min, sample RH 84.85%, 25.19 °C): 0.451%
- Weight % chg ([1]; sorption, elapsed 543.7 min, sample RH 94.83%, 25.19 °C): 2.311%
- Weight % chg ([1]; start, elapsed 0.1 min, sample RH 0.99%, 25.18 °C): 0.000%
- Observation on exposure to elevated RH ([2]; 75% RH, after 3 hours): no deliquescence
- Observation on exposure to elevated RH ([2]; 75% RH, after 24 hours): began deliquescing
- Observation on exposure to elevated RH ([2]; 85% RH, after 3 hours): appeared wet with solids present
- Observation on exposure to elevated RH ([2]; 85% RH, after 24 hours): deliquesced
- Observation on exposure to elevated RH ([2]; 97% RH, after 3 hours): deliquescence was observed
- Observation on exposure to elevated RH ([2]; 97% RH, after 24 hours): deliquesced
- solubility ([3]; Cyclohexane): <1 mg/mL
- solubility ([3]; Heptane): <1 mg/mL
- solubility ([3]; organic solvent or mixture, thermodynamic from solid, ACN, read-out: Solubility): > 66 mg/mL
- solubility ([3]; organic solvent or mixture, thermodynamic from solid, Acetone, read-out: Solubility): 34 mg/mL (≈ 81.1 mM)
- solubility ([3]; organic solvent or mixture, thermodynamic from solid, Anisole, read-out: Solubility): 35 mg/mL (≈ 83.5 mM)
- solubility ([3]; organic solvent or mixture, thermodynamic from solid, Chloroform, read-out: Solubility): 36 mg/mL (≈ 85.9 mM)
- solubility ([3]; organic solvent or mixture, thermodynamic from solid, Cyclohexane, read-out: Solubility): < 1 mg/mL
- solubility ([3]; organic solvent or mixture, thermodynamic from solid, Cyclohexane:EtOAc 3:1 by volume, read-out: Solubility): 4 mg/mL (≈ 9.54 mM)
- solubility ([3]; organic solvent or mixture, thermodynamic from solid, Cyclohexane:EtOH 90:10 by volume, read-out: Solubility): 17 mg/mL (≈ 40.5 mM)
- solubility ([3]; organic solvent or mixture, thermodynamic from solid, DCM, read-out: Solubility): 34 mg/mL (≈ 81.1 mM)
- solubility ([3]; organic solvent or mixture, thermodynamic from solid, DMF, read-out: Solubility): > 63 mg/mL
- solubility ([3]; organic solvent or mixture, thermodynamic from solid, DMSO, read-out: Solubility): > 71 mg/mL
- solubility ([3]; organic solvent or mixture, thermodynamic from solid, Diethyl Ether, read-out: Solubility): 9 mg/mL (≈ 21.5 mM)
- solubility ([3]; organic solvent or mixture, thermodynamic from solid, EtOAc, read-out: Solubility): > 68 mg/mL
- solubility ([3]; organic solvent or mixture, thermodynamic from solid, EtOH, read-out: Solubility): > 68 mg/mL
- solubility ([3]; organic solvent or mixture, thermodynamic from solid, Heptane, read-out: Solubility): < 1 mg/mL
- solubility ([3]; organic solvent or mixture, thermodynamic from solid, Heptane:MEK 2:1 by volume, read-out: Solubility): 22 mg/mL (≈ 52.5 mM)
- solubility ([3]; organic solvent or mixture, thermodynamic from solid, IPA, read-out: Solubility): 34 mg/mL (≈ 81.1 mM)
- solubility ([3]; organic solvent or mixture, thermodynamic from solid, IPOAc, read-out: Solubility): > 66 mg/mL
- solubility ([3]; organic solvent or mixture, thermodynamic from solid, MEK, read-out: Solubility): 37 mg/mL (≈ 88.2 mM)
- solubility ([3]; organic solvent or mixture, thermodynamic from solid, MTBE, read-out: Solubility): 22 mg/mL (≈ 52.5 mM)
- solubility ([3]; organic solvent or mixture, thermodynamic from solid, Nitromethane, read-out: Solubility): > 68 mg/mL
- solubility ([3]; organic solvent or mixture, thermodynamic from solid, TFE, read-out: Solubility): > 66 mg/mL
- solubility ([3]; organic solvent or mixture, thermodynamic from solid, THF, read-out: Solubility): > 64 mg/mL
- solubility ([3]; organic solvent or mixture, thermodynamic from solid, Toluene, read-out: Solubility): 33 mg/mL (≈ 78.7 mM)
- solubility ([3]; organic solvent or mixture, thermodynamic from solid, Xylene, read-out: Solubility): 17 mg/mL (≈ 40.5 mM)
- Thermodynamically stable polymorph [4]: the stable form at room temperature
- Thermodynamically stable polymorph ([4]; listed as Polymorph form A): thermodynamically stable
- Mass change in stepped DVS ([5]; at humidities higher than 40% RH, loss of ethanol from the boronate ester complex): a decrease in mass was observed
- Mass increase in stepped DVS ([5]; from 0% RH to 40% RH): 0.3 wt, -%
- Retention of crystal structure (XRPD after stepped DVS) ([5]; up to 60% r.h.): retained its predominant crystal structure for at least four hours
